From patent US9447044B2, “Thioaryl derivatives as GPR120 agonists” (LG LIFE SCIENCES LTD., priority 2012, dated 2016)

biological target: T1, hGPR120 (Homo sapiens, UniProt Q5NUL3); assay: Measurement of activity of GPR120 agonist (cell-based assay), calcium fluorescence; conditions: CHO-K1 cells expressing Ga16 and hGPR120; Calcium 5 dye fluorescence; activity class
T1 construct: expressed in transfected cells; host or cells: CHO-K1
T1 sequence (Q5NUL3 1-361): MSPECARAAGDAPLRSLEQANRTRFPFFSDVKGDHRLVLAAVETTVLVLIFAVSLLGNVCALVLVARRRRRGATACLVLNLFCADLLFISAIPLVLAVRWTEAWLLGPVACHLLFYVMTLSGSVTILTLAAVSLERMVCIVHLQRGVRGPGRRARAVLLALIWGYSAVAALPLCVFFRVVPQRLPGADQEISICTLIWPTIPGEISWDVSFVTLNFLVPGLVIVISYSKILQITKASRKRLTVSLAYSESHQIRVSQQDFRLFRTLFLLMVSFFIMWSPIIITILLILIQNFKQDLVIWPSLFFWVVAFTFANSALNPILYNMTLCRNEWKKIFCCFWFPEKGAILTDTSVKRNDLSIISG
Experimental: CHO-K1 cells expressing Ga16 and hGPR120 were dispensed into each well of a 96-well plate (3×10^4 cells/100 μl/well) and then incubated in 5% CO2, 37° C. incubator for 18 hours. Each well was treated with 100 μl of Calcium 5 dye (Molecular Devices) solution including 2% DMSO and then incubated in 5% CO2, 37° C. incubator for 1 hour. Serially diluted GPR120 agonists were prepared to a final concentration of 0.5% DMSO in a 96-well plate. Each well was treated with 50 μl of the agonist compounds using Plexstation II, and then fluorescence was measured at Ex 485 nm, Em 525 nm.
Fluorescence increased by the serially diluted GPR120 agonists is calculated as a relative percent (%) value based on the fluorescence represented by the treatment of 0.1% DMSO only. […] The calculation of measurement was carried out by using statistical software (Prizm).
Activity is denoted based on the following criteria: A=>20 μM, B=[…], C=2˜0.2 μM, D=<0.2 μM

Row | EC50 [nM] | Compound
1 | < 200 | CC(Cc1cc(F)c(OCc2cccnc2SCC2CC2)c(F)c1)C(=O)O (stereo not drawn) [Example 50, 3-[4-(2-cyclopropylmethylsulfanyl-pyridin-3-ylmethoxy)-3,5-difluoro-phenyl]-2-methyl-propionic acid]
2 | < 200 | CCCSc1ncccc1COc1c(F)cc(CC(C)C(=O)O)cc1F (stereo not drawn) [Example 51, 3-[3,5-difluoro-4-(2-propylsulfanyl-pyridin-3-ylmethoxy)-phenyl]-2-methyl-propionic acid]
3 | < 200 | CC(C)Sc1cccc(COc2ccc(CC(C)C(=O)O)cc2F)n1 (stereo not drawn) [Example 52, 3-[3-fluoro-4-(6-isopropylsulfanyl-pyridin-2-ylmethoxy)-phenyl]-2-methyl-propionic acid]
4 | 200 to 2000 | CCC(C)Sc1cccc(COc2ccc(CC(C)C(=O)O)cc2F)n1 (stereo not drawn) [Example 53, 3-[4-(6-sec-butylsulfanyl-pyridin-2-ylmethoxy)-3-fluoro-phenyl]-2-methyl-propionic acid]
5 | < 200 | CC(Cc1ccc(OCc2cccc(SC3CCCC3)n2)c(F)c1)C(=O)O (stereo not drawn) [Example 54, 3-[4-(6-cyclopentylsulfanyl-pyridin-2-ylmethoxy)-3-fluoro-phenyl]-2-methyl-propionic acid]
6 | < 200 | CC(Cc1ccc(OCc2cccc(SC3CCC3)n2)c(F)c1)C(=O)O (stereo not drawn) [Example 55, 3-[4-(6-cyclobutylsulfanyl-pyridin-2-ylmethoxy)-3-fluoro-phenyl]-2-methyl-propionic acid]
7 | < 200 | CC(Cc1cc(F)c(OCc2cccnc2SC2CCC2)c(F)c1)C(=O)O (stereo not drawn) [Example 56, 3-[4-(2-cyclobutylsulfanyl-pyridin-3-ylmethoxy)-3,5-difluoro-phenyl]-2-methyl-propionic acid]
8 | < 200 | COc1cc(CCC(=O)O)ccc1OCc1cccnc1SC1CCCC1 [Example 58, 3-[4-(2-cyclopentylsulfanyl-pyridin-3-ylmethoxy)-3-methoxy-phenyl]-propionic acid]
9 | 200 to 2000 | CC(C)Sc1ncccc1COc1ccc2c(c1)OCC2CC(=O)O (stereo not drawn) [Example 59, [6-(2-isopropylsulfanyl-pyridin-3-ylmethoxy)-2,3-dihydro-benzofuran-3-yl]-acetic acid]
10 | < 200 | CC(C)Sc1ncccc1COc1ccc(CC(C)C(=O)O)cc1F (stereo not drawn) [Example 60, 3-[3-fluoro-4-(2-isopropylsulfanyl-pyridin-3-ylmethoxy)-phenyl]-2-methyl-propionic acid]
11 | < 200 | CCCCSc1ncccc1COc1ccc(CC(C)C(=O)O)cc1F (stereo not drawn) [Example 61, 3-[4-(2-butylsulfanyl-pyridin-3-ylmethoxy)-3-fluoro-phenyl]-2-methyl-propionic acid]
12 | < 200 | O=C(O)C1CC1c1cc(F)c(OCc2cccnc2SC2CCCC2)c(F)c1 (stereo not drawn) [Example 62, 2-[4-(2-cyclopentylsulfanyl-pyridin-3-ylmethoxy)-3,5-difluoro-phenyl]-cyclopropane carboxylic acid]
13 | < 200 | O=C(O)C1CC1c1cc(F)c(OCc2cccnc2SCC2CC2)c(F)c1 (stereo not drawn) [Example 63, 2-[4-(2-cyclopropylmethylsulfanyl-pyridin-3-ylmethoxy)-3,5-difluoro-phenyl]-cyclopropane carboxylic acid]
14 | < 200 | CC(C)Sc1ncccc1COc1c(F)cc(C2CC2C(=O)O)cc1F (stereo not drawn) [Example 65, 2-[3,5-difluoro-4-(2-isopropylsulfanyl-pyridin-3-ylmethoxy)-phenyl]-cyclopropane carboxylic acid]
15 | < 200 | CCCCSc1ncccc1COc1c(F)cc(C2CC2C(=O)O)cc1F (stereo not drawn) [Example 66, 2-[4-(2-butylsulfanyl-pyridin-3-ylmethoxy)-3,5-difluoro-phenyl]-cyclopropane carboxylic acid]
16 | 200 to 2000 | CC(C)Sc1cccc(COc2ccc3c(c2)OCC3CC(=O)O)n1 (stereo not drawn) [Example 67, [6-(6-isopropylsulfanyl-pyridin-2-ylmethoxy)-2,3-dihydro-benzofuran-3-yl]-acetic acid]

Row | EC50 [nM] | Compound
17 | 200 to 2000 | O=C(O)CC1COc2cc(OCc3cccc(SC4CCCC4)n3)ccc21 (stereo not drawn) [Example 68, [6-(6-cyclopentylsulfanyl-pyridin-2-ylmethoxy)-2,3-dihydro-benzofuran-3-yl]-acetic acid]
18 | 200 to 2000 | CC(C)Sc1ncccc1COc1ccc(CC(C)(C)C(=O)O)cc1 [Example 69, 3-[4-(2-isopropylsulfanyl-pyridin-3-ylmethoxy)-phenyl]-2,2-dimethyl-propionic acid]
19 | 200 to 2000 | Cc1ncc(COc2c(F)cc(CCC(=O)O)cc2F)c(SC(C)C)n1 [Example 71, 3-[3,5-difluoro-4-(4-isopropylsulfanyl-2-methyl-pyrimidin-5-ylmethoxy)-phenyl]-prop ionic acid]
20 | < 200 | COc1cc(CCC(=O)O)ccc1OCc1cccc(SC(C)C)n1 [Example 72, 3-[4-(6-isopropylsulfanyl-pyridin-2-ylmethoxy)-3-methoxy-phenyl]-propionic acid]
21 | 200 to 2000 | COc1cc(CCC(=O)O)ccc1OCc1cccc(SC2CCCC2)n1 [Example 73, 3-[4-(6-cyclopentylsulfanyl-pyridin-2-ylmethoxy)-3-methoxy-phenyl]-propionic acid]
22 | < 200 | O=C(O)CC1COc2cc(OCc3cccnc3SC3CCCC3)ccc21 (stereo not drawn) [Example 74, [6-(2-cyclopentylsulfanyl-pyridin-3-ylmethoxy)-2,3-dihydro-benzofuran-3-yl]-acetic acid]
23 | < 200 | O=C(O)C1CC1c1cc(F)c(OCc2cccc(SC3CCC3)n2)c(F)c1 (stereo not drawn) [Example 75, 2-[4-(6-cyclobutylsulfanyl-pyridin-2-ylmethoxy)-3,5-difluoro-phenyl]-cyclopropane carboxylic acid]
24 | 200 to 2000 | COc1ccc(COc2c(F)cc(CCC(=O)O)cc2F)c(SC2CCCC2)n1 [Example 76, 3-[4-(2-cyclopentylsulfanyl-6-methoxy-pyridin-3-ylmethoxy)-3,5-difluoro-phenyl]-propionic acid]
25 | < 200 | CC(C)Sc1ncccc1COc1ccc(CCC(=O)O)cc1Cl [Example 77, 3-[3-chloro-4-(2-isopropylsulfanyl-pyridin-3-ylmethoxy)-phenyl]-propionic acid]
26 | < 200 | O=C(O)CCc1ccc(OCc2cccnc2SC2CCCC2)c(Cl)c1 [Example 78, 3-[3-chloro-4-(2-cyclopentylsulfanyl-pyridin-3-ylmethoxy)-phenyl]-propionic acid]
27 | < 200 | Cc1c(CCC(=O)O)ccc(OCc2cccnc2SC2CCCC2)c1C [Example 80, 3-[4-(2-cyclopentylsulfanyl-pyridin-3-ylmethoxy)-2,3-dimethyl-phenyl]-propionic acid]
28 | < 200 | O=C(O)C[C@@H]1COc2cc(OCc3cccnc3SC3CCCC3)ccc21 [Example 81, [(S)-6-(2-cyclopentylsulfanyl-pyridin-3-ylmethoxy)-2,3-dihydro-benzofuran-3-yl]-acetic acid]
29 | < 200 | O=C(O)C[C@H]1COc2cc(OCc3cccnc3SC3CCCC3)ccc21 [Example 82, [(R)-6-(2-cyclopentylsulfanyl-pyridin-3-ylmethoxy)-2,3-dihydro-benzofuran-3-yl]-acetic acid]
30 | < 200 | O=C(O)C1CC1c1ccc(OCc2cccnc2SCC2CC2)c(F)c1 (stereo not drawn) [Example 84, 2-[4-(2-cyclopropylmethylsulfanyl-pyridin-3-ylmethoxy)-3-fluoro-phenyl]-cyclopropane carboxylic acid]
31 | < 200 | O=C(O)C1CC1c1ccc(OCc2cccc(SC3CCCC3)n2)c(F)c1 (stereo not drawn) [Example 85, 2-[4-(6-cyclopentylsulfanyl-pyridin-2-ylmethoxy)-3-fluoro-phenyl]-cyclopropane carboxylic acid]

same assay, conditions: CHO-K1 cells expressing Ga16 and hGPR120; Calcium 5 dye fluorescence; numeric value

Row | EC50 [nM] | Compound
32 | 454 | COc1cc(CCC(=O)O)ccc1OCc1cccnc1SC(C)C [Example 57, 3-[4-(2-isopropylsulfanyl-pyridin-3-ylmethoxy)-3-methoxy-phenyl]-propionic acid]
33 | 108 | CC(C)Sc1cccc(COc2c(F)cc(C3CC3C(=O)O)cc2F)n1 (stereo not drawn) [Example 64, 2-[3,5-difluoro-4-(6-isopropylsulfanyl-pyridin-2-ylmethoxy)-phenyl]-cyclopropane carboxylic acid]
34 | 1880 | CC(C)Sc1cccc(COc2ccc(CC(C)(C)C(=O)O)cc2)n1 [Example 70, 3-[4-(6-isopropylsulfanyl-pyridin-2-ylmethoxy)-phenyl]-2,2-dimethyl-propionic acid]
35 | 33 | Cc1c(CCC(=O)O)ccc(OCc2cccnc2SC(C)C)c1C [Example 79, 3-[4-(2-isopropylsulfanyl-pyridin-3-ylmethoxy)-2,3-dimethyl-phenyl]-propionic acid]
36 | 110 | CC(C)Sc1ncccc1COc1ccc(C2CC2C(=O)O)cc1F (stereo not drawn) [Example 83, 2-[3-fluoro-4-(2-isopropylsulfanyl-pyridin-3-ylmethoxy)-phenyl]-cyclopropane carboxylic acid]
